What was measured:
Type in all cases: cell-based, human
THP-1 cells [1] = assay: TNF stimulated CXCL8 release by THP-1 cells; settings: TNF 2 ng/ml, overnight (FIG. 3B)
Protocol: (§1) THP-1 cells (10^5 cells/200 μL/well) and RA FLS (104/200 μL/well) were plated in 96 well plates and pre-treated with compound or vehicle for 1 h and then stimulated with either LPS (10 ng/ml), 1L-1ß (2 ng/ml) or TNF (2 ng/ml for THP-1 and 1 ng/ml for RA FLS). After 18 h of incubation, supernatants were collected and the levels of cytokines and chemokines in the culture supernatants were measured by ELISA according to the manufacturer's protocols (R&D systems, Minneapolis, MN).
(§2) The lead compounds belonging to chemotypes 1, 3, and 5 were tested for potency in suppressing chemokine and cytokine production by THP-1 cells in the presence of different inflammatory stimuli. The production of CXCL8 induced by either LPS (10 ng/ml), IL-1ß (2 ng/ml), or TNF (2 ng/ml) and TNF induced by IL-1ß (2 ng/ml) was assessed using serially diluted compounds. The compounds except 1-2 reduced the level of CXCL8 production stimulated by LPS in a dose dependent manner (FIG. 3A). However, the compounds from chemotype 5 enhanced CXCL8 release by THP-1 cells when stimulated with IL-111, or TNF (FIGS. 3B, C). […] The 1Cs0 for 1-1, 1-2 and 3-1 for IL-1ß stimulated CXCL8 release included 400, 1770, and 2020 nM, respectively, (FIG. 3C).

THP-1 cells [2] = assay: IL-1ß stimulated CXCL8 release by THP-1 cells; settings: IL-1ß 2 ng/ml, overnight (FIG. 3C)
Protocol: as §1, §2

RA FLS [3] = assay: Cell viability of RA FLS by WST-8 assay; settings: WST-8 assay (FIG. 6F)
Protocol: Two types of tetrazolium were used for viability assays. For THP-1 cells, the cells were dispensed in 96-well plates (10^5 cells/200 μL/ well) and treated with 5 Oil of each compound. After 18 h of incubation, 0.5 mg/ml 3[4,5-dimethylthiazol-2-yl]-2,5-dipheyl tetrazolium bromide (MTT; Thermo Fisher Scientific) in assay media was added to each well at a final concentration of (0.5 mg/ml) and further incubated for 4-6 h. The absorbances at 570 and 650 nm were measured by a Tecan Infinite M200 plate reader, For RA FLS, the cells were dispersed into 96-well flat bottom plates (104/200 μL/well) and incubated overnight. The next day, RA FLS were treated with 5 μM of each compound for 18 h of incubation. Ten μl of WST-8 [2-(2-methoxy-4-nitrophenyl)-3-(4-nitrophenyl)-5-(2,4-disulfophewnyl)-2H-tetrazolium, monosodium salt] solution was added to each well and the cells were further incubated for 2-4 h. The absorbance was measured at 450 nm with Bio-Rad iMark plate reader (Bio-Rad Laboratories Inc., Hercules, CA, Unites States).

RA FLS [4] = assay: Chemokine and cytokine production by TNF stimulated RA FLS
Source text: Rheumatoid arthritis fibroblast-like synoviocytes (RA FLS) were isolated from synovial tissues derived from patients with RA when they underwent joint replacement surgery or synovectomy. Patients were age ≥18 years with active RA based on the ACR 1987 Revised Criteria and consent forms were completed by the patients before surgery. The study protocol was approved by the institutional review board at TokyoMedical andDental University, Tokyo, Japan and are in accordance with the principles of the Declaration of Helsinki. RA FLS were cultured in DMEM supplemented with 10% FBS, 100 U/mL penicillin, and 100 μg/mL streptomycin in a humidified 5% CO2 incubator. All experiments used proliferating RA FLS.
as §1
(§3) In the pathogenesis of rheumatoid arthritis, fibroblast-like synoviocytes (RA FLS) are a primary source of inflammatory cytokines and chemokines in inflamed joints. The immunomodulatory effects and cytotoxicity of compound 1-1 on RA FLS was analyzed. […] To assess the synergistic effect of compound 1-1 with DEX in RA FLS, IL-6 and CXCL8 suppression was analyzed by co-titrating DEX and compound 1-1 in cultures with TNF stimulated RA FLS (FIG. 7A, B).

RA FLS [5] = assay: Synergy of compound 1-1 with DEX in TNF stimulated RA FLS (isobologram)
Protocol: Drug synergy analysis was performed using lsobologram plots which were calculated according to reported procedures to compute IC50 and determine synergism. IC50 is computed from the median effect equation. Synergism analysis is carried out using the Combination index (Cl)-isobol method. Data analysis was performed using the CompuSyn software available on combisyn.com, Detailed methodology was used as described in a prior report. […] This is followed by Cl-isobol method to quantitatively assess the synergism between these inhibitor drugs. […] From the median effect equation, the estimated dose (i.e., D) necessary to produce the inhibition (i.e., Fa, Fu) obtained by the combination was calculated. […]
as §3

IC50 (THP-1 cells [1]): 900 nM
IC50 (THP-1 cells [2]): 400 nM
IC50 in RA FLS (RA FLS [4]; comparable to that in THP-1): micromolar level
Structure (SMILES): Cc1ccc(-n2ncc3c(NC4CCCCC4)ncnc32)c(C)c1 [Compound 1-1]
Cytotoxicity in RA FLS (RA FLS [3]): low cytotoxicity
CCL2 production induced by TNF (RA FLS [4]; TNF 1 ng/ml overnight): dose-dependently suppressed
CXCL1 production induced by TNF (RA FLS [4]; TNF 1 ng/ml overnight): dose-dependently suppressed
CXCL8 production induced by TNF (RA FLS [4]; TNF 1 ng/ml overnight): dose-dependently suppressed
IL-6 production induced by TNF (RA FLS [4]; TNF 1 ng/ml overnight): dose-dependently suppressed
MMP-3 production induced by TNF (RA FLS [4]; TNF 1 ng/ml overnight): not
Synergistic effect with DEX, CXCL8 release (RA FLS [5]; isobologram (FIG. 7C)): synergistic effects
Synergistic effect with DEX, IL-6 release (RA FLS [5]; isobologram (FIG. 7D)): synergistic effects

From patent publication US20230365570A1, “COMPOUNDS WITH GLUCOCORTICOID SPARING EFFECTS AND USES THEREOF” (The Regents of the University of California, priority 2020, published 2023)
